Experimental data from publication PMC3880596 (Journal of medicinal chemistry, 2013).

Assays:
recombinant BoNT/A LC [1] = target: T1, recombinant BoNT/A LC (Clostridium botulinum, UniProt P0DPI0); conditions: cited from earlier work
[2] = test system: P. falciparum Indochina W2 clone; assay: microbe, parasite or virus in culture; assay type: cell-based, Plasmodium falciparum
[3] = test system: P. falciparum African D6 clone; assay: microbe, parasite or virus in culture; assay type: cell-based, Plasmodium falciparum; conditions: for IC50: Plasmodium falciparum, D6, read-out: antimalarial activity IC50, CQS D6
[4] = test system: P. falciparum multidrug resistant C235 strain (Thailand); assay: microbe, parasite or virus in culture; assay type: cell-based, Plasmodium falciparum
recombinant BoNT/A LC [5] = target: T1, recombinant BoNT/A LC; assay: biochemical; conditions: read-out: BoNT/A LC inhibition
in vitro [6] = conditions: human, microsomes, pH 7.4
in vitro [7] = conditions: mouse, microsomes, pH 7.4

T1 sequence (P0DPI0 2-448 limits assumed): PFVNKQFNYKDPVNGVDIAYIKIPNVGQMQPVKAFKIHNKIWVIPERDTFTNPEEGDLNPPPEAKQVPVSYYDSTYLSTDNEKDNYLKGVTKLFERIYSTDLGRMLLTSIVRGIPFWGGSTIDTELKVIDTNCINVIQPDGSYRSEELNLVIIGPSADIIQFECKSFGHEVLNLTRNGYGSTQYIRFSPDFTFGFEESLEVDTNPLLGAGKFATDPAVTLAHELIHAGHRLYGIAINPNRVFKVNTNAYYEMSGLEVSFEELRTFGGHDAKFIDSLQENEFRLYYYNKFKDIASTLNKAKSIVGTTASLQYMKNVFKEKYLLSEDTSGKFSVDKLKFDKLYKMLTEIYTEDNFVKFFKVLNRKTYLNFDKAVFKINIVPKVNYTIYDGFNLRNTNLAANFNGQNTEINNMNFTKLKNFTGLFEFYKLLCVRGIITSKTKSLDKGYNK

| Structure (SMILES) | selectivity index (IC50), SI = ICtox/ICP.f. activity, W2 [2] | selectivity index (IC50), SI = ICtox/ICP.f. activity, D6 [3] | selectivity index (IC50), SI = ICtox/ICP.f. activity, TM91C235 [4] | other results |
| --- | --- | --- | --- | --- |
| NCCCNc1ccnc2cc(Cl)ccc12 [compound 5, N1-(7-chloroquinolin-4-yl)propane-1,3-diamine] | – | – | – | BoNT/A LC inhibition (in words), tested as fragments (recombinant BoNT/A LC [1]): poor BoNT/A LC inhibitors |
| C=C[C@H]1C[N@@]2CC[C@H]1C[C@@H]2[C@@H](O)c1ccnc2ccc(OC)cc12 [Quinidine] | – | – | – | BoNT/A LC inhibition (in words) (recombinant BoNT/A LC [1]): poor inhibitors |
| CC(C)(C)c1ccc(CNCCCNc2ccnc3cc(Cl)ccc23)cc1 [compound 9, N-(4-Tert-butylbenzyl)-N'-(7-chloroquinolin-4-yl)propane-1,3-diamine] | 45/100/68 | 45/100/68 | 45/100/68 | – |
| Clc1ccc2c(NCCNCc3ccccc3)ccnc2c1 [compound 6, N-Benzyl-N'-(7-chloroquinolin-4-yl)ethane-1,2-diamine] | – | – | – | inhibition at 20 µM (recombinant BoNT/A LC [5]): > 50%; IC90 ([2]; Plasmodium falciparum, W2, read-out: antimalarial activity IC90, CQR W2): 14.1 nM; IC50 [3]: < 9 nM |
| Clc1ccc2c(NCCNCc3ccc(Br)cc3)ccnc2c1 [compound 14, N-(4-Bromobenzyl)-N'-(7-chloroquinolin-4-yl)ethane-1,2-diamine] | 695/1606/660 | 695/1606/660 | 695/1606/660 | half-life (in vitro [6]): ≥ 1 h; half-life (in vitro [7]): ≥ 1 h |
| CCN(CC)CCCC(C)Nc1ccnc2cc(Cl)ccc12.O=P(O)(O)O.O=P(O)(O)O (centres unmarked) [CQ, chloroquine, reference compound] | – | – | – | IC50 ([2]; Plasmodium falciparum, W2, read-out: antimalarial activity IC50, CQR W2): 634 nM; IC50 [3]: 14.2 nM; IC50 ([4]; Plasmodium falciparum, read-out: antimalarial activity IC50, MDR TM91C235): 226 nM; BoNT/A LC inhibition (in words) (recombinant BoNT/A LC [1]): poor BoNT/A LC inhibitors |
| Clc1ccc2c(NCCCNCc3ccccc3)ccnc2c1 [compound 7, N-Benzyl-N'-(7-chloroquinolin-4-yl)propane-1,3-diamine] | 56/169/73 | 56/169/73 | 56/169/73 | inhibition at 20 µM (recombinant BoNT/A LC [5]): > 50%; half-life (in vitro [6]): ≥ 1 h; half-life (in vitro [7]): ≥ 1 h |
| Clc1ccc2c(NCCCNCc3cccnc3)ccnc2c1 [compound 19, N-(7-Chloroquinolin-4-yl)-N'-(pyridin-3-ylmethyl)propane-1,3-diamine] | 90/ /317 | – | 90/ /317 | half-life (in vitro [6]): ≥ 1 h; half-life (in vitro [7]): ≥ 1 h |
| COc1ccc(CNCCNc2ccnc3cc(Cl)ccc23)cc1 [compound 10, N-(7-Chloroquinolin-4-yl)-N'-(4-methoxybenzyl)ethane-1,2-diamine] | 406/1806/362 | 406/1806/362 | 406/1806/362 | – |
| CC(C)(C)c1ccc(CNCCNc2ccnc3cc(Cl)ccc23)cc1 [compound 8, N-(4-Tert-butylbenzyl)-N'-(7-chloroquinolin-4-yl)ethane-1,2-diamine] | 245/429/419 | 245/429/419 | 245/429/419 | – |
| Clc1ccc2c(NCCNCc3ccncc3)ccnc2c1 [compound 16, N-(7-Chloroquinolin-4-yl)-N'-(pyridin-4-ylmethyl)ethane-1,2-diamine] | 409/2528/752 | 409/2528/752 | 409/2528/752 | – |
| Clc1ccc2c(NCCCNCc3ccncc3)ccnc2c1 [compound 17, N-(7-Chloroquinolin-4-yl)-N'-(pyridin-4-ylmethyl)propane-1,3-diamine] | 176/4146/469 | 176/4146/469 | 176/4146/469 | IC50 [3]: < 9 nM |
| Clc1ccc2c(NCCCNCc3cnccc3Cl)ccnc2c1 [compound 21, N-[(4-Chloropyridin-3-yl)methyl]-N'-(7-chloroquinolin-4-yl)propane-1,3-diamine] | 52/146/121 | 52/146/121 | 52/146/121 | – |
| Fc1ccc(CNCCCNc2ccnc3cc(Cl)ccc23)cc1 [compound 13, N-(7-Chloroquinolin-4-yl)-N'-(4-fluorobenzyl)propane-1,3-diamine] | 110/415/185 | 110/415/185 | 110/415/185 | – |
| CCN(CC)CCCC(C)Nc1c2ccc(Cl)cc2nc2ccc(OC)cc12 (centres unmarked) [Quinacrine] | – | – | – | BoNT/A LC inhibition (in words) (recombinant BoNT/A LC [1]): poor inhibitors |
| Clc1ccc2c(NCCNCc3cccnc3)ccnc2c1 [compound 18, N-(7-Chloroquinolin-4-yl)-N'-(pyridin-3-ylmethyl)ethane-1,2-diamine] | 426/1796/882 | 426/1796/882 | 426/1796/882 | – |
| COc1ccncc1CNCCCNc1ccnc2cc(Cl)ccc12 [compound 23, N-(7-Chloroquinolin-4-yl)-N'-[(4-methoxypyridin-3-yl)methyl]propane-1,3-diamine] | 57/1040/93 | 57/1040/93 | 57/1040/93 | IC50 [3]: < 9 nM; half-life (in vitro [6]): ≥ 1 h; half-life (in vitro [7]): ≥ 1 h |
| CCN(CC)Cc1cc(Nc2ccnc3cc(Cl)ccc23)ccc1O [Amodiaquine] | – | – | – | BoNT/A LC inhibition (in words) (recombinant BoNT/A LC [1]): poor inhibitors |
| Clc1ccc2c(NCCNCc3cnccc3Cl)ccnc2c1 [compound 20, N-[(4-Chloropyridin-3-yl)methyl]-N'-(7-chloroquinolin-4-yl)ethane-1,2-diamine] | 46/102/78 | 46/102/78 | 46/102/78 | – |
| C=C[C@H]1C[N@@]2CC[C@H]1C[C@H]2[C@H](O)c1ccnc2ccc(OC)cc12 [Quinine] | – | – | – | BoNT/A LC inhibition (in words) (recombinant BoNT/A LC [1]): poor inhibitors |
| COc1ccc(CNCCCNc2ccnc3cc(Cl)ccc23)cc1 [compound 11, N-(7-Chloroquinolin-4-yl)-N'-(4-methoxybenzyl)propane-1,3-diamine] | 86/778/95 | 86/778/95 | 86/778/95 | IC50 [3]: < 9 nM |
| Clc1ccc2c(NCCCNCc3ccc(Br)cc3)ccnc2c1 [compound 15, N-(4-Bromobenzyl)-N'-(7-chloroquinolin-4-yl)propane-1,3-diamine] | – | – | – | half-life (in vitro [6]): ≥ 1 h; half-life (in vitro [7]): ≥ 1 h |
| NCCNc1ccnc2cc(Cl)ccc12 [compound 4, N1-(7-chloroquinolin-4-yl)ethane-1,2-diamine] | – | – | – | BoNT/A LC inhibition (in words), tested as fragments (recombinant BoNT/A LC [1]): poor BoNT/A LC inhibitors |
| COc1ccncc1CNCCNc1ccnc2cc(Cl)ccc12 [compound 22, N-(7-Chloroquinolin-4-yl)-N'-[(4-methoxypyridin-3-yl)methyl]ethane-1,2-diamine] | 435/4000/588 | 435/4000/588 | 435/4000/588 | – |
| Fc1ccc(CNCCNc2ccnc3cc(Cl)ccc23)cc1 [compound 12, N-(7-Chloroquinolin-4-yl)-N'-(4-fluorobenzyl)ethane-1,2-diamine] | 350/608/291 | 350/608/291 | 350/608/291 | – |
